Measured values reported in ChEMBL document CHEMBL2321780, “Fluorinated quinazolinones as potential radiotracers for imaging kinesin spindle protein expression” (2013).
Calls of active or inactive are those of the source. The rule behind the calls is not given here.

Assays:
SK-OV-3 [1] = experiment: Cell cycle arrest in human SKOV3 cells assessed as accumulation in G2/M phase at 100 nM after 24 hrs by FACS analysis (reference value: 21.8%); type: functional
PC-3 [2] = experiment: Cell cycle arrest in human PC3 cells assessed as accumulation in S phase at 100 nM after 24 hrs by FACS analysis (reference value: 14.2%); type: functional
PC-3 [3] = experiment: Cell cycle arrest in human PC3 cells assessed as accumulation in G2/M phase at 100 nM after 24 hrs by FACS analysis (reference value: 26.3%); type: functional
SK-OV-3 [4] = experiment: Cell cycle arrest in human SKOV3 cells assessed as phospho-histone3 level at 100 nM after 24 hrs by immunostaining analysis; type: functional
DU-145 [5] = experiment: Cell cycle arrest in human DU145 cells assessed as accumulation in G2/M phase at 100 nM after 24 hrs by FACS analysis (reference value: 31%); type: functional
MCF7 [6] = experiment: Cell cycle arrest in human MCF7 cells assessed as accumulation in S phase at 100 nM after 24 hrs by FACS analysis (reference value: 19.6%); type: functional
SK-OV-3 [7] = experiment: Cell cycle arrest in human SKOV3 cells assessed as accumulation in S phase at 100 nM after 24 hrs by FACS analysis (reference value: 18.4%); type: functional
SK-OV-3 [8] = experiment: Cell cycle arrest in human SKOV3 cells assessed as accumulation in G0/G1 phase at 100 nM after 24 hrs by FACS analysis (reference value: 51.1%); type: functional
[9] = target: T1, Kinesin-1 heavy chain (Homo sapiens) (UniProt P33176); experiment: Inhibition of KNH (unknown origin)-mediated ATP hydrolysis assessed as residual activity at 1 uM after 10 to 20 mins by spectrophotometric analysis
T1 sequence (whole entry): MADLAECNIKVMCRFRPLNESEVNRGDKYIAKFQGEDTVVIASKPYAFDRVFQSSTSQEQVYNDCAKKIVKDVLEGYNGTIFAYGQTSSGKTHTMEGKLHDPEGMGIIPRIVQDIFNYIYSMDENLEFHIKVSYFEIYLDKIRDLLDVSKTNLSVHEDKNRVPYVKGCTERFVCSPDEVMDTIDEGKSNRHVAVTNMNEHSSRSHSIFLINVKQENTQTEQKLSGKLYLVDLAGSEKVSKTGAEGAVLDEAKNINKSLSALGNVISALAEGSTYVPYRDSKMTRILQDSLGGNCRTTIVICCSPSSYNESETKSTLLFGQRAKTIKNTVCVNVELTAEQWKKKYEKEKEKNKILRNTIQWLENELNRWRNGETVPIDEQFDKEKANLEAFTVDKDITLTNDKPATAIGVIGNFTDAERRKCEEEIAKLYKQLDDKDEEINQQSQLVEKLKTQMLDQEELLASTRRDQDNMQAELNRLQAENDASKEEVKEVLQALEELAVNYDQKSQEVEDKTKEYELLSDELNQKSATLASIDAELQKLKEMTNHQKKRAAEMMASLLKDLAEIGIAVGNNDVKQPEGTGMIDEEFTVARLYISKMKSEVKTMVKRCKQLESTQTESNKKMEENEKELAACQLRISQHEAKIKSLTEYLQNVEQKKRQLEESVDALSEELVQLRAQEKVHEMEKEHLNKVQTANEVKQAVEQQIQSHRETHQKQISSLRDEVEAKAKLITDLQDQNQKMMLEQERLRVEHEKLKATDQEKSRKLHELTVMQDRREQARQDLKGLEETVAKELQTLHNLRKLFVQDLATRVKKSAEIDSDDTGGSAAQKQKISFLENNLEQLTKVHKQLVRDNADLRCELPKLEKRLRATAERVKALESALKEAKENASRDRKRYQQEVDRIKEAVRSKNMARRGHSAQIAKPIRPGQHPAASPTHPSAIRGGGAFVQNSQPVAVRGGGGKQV

DU-145 [10] = experiment: Cell cycle arrest in human DU145 cells assessed as accumulation in G0/G1 phase at 100 nM after 24 hrs by FACS analysis (reference value: 53.2%); type: functional
MCF7 [11] = experiment: Cell cycle arrest in human MCF7 cells assessed as accumulation in G2/M phase at 100 nM after 24 hrs by FACS analysis (reference value: 22.4%); type: functional
DU-145 [12] = experiment: Cell cycle arrest in human DU145 cells assessed as accumulation in S phase at 100 nM after 24 hrs by FACS analysis (reference value: 4.5%); type: functional
MCF7 [13] = experiment: Cell cycle arrest in human MCF7 cells assessed as accumulation in G0/G1 phase at 100 nM after 24 hrs by FACS analysis (reference value: 48.2%); type: functional
PC-3 [14] = experiment: Cell cycle arrest in human PC3 cells assessed as accumulation in G0/G1 phase at 100 nM after 24 hrs by FACS analysis (reference value: 32.6%); type: functional
SK-OV-3 [15] = experiment: Cell cycle arrest in human SKOV3 cells assessed as monoaster phenotype at 100 nM after 22 hrs by confocal microscopic analysis; type: functional, cell-based
SK-OV-3 [16] = experiment: Cytotoxicity against human SKOV3 cells assessed as inhibition of KSP-mediated cell cycle progression after 44 hrs by MTT assay; type: functional; conditions: SK-OV-3, 44 h
DU-145 [17] = experiment: Cytotoxicity against human DU145 cells assessed as inhibition of KSP-mediated cell cycle progression after 44 hrs by MTT assay; type: functional; conditions: DU-145, 44 h
PC-3 [18] = experiment: Cytotoxicity against human PC3 cells assessed as inhibition of KSP-mediated cell cycle progression after 44 hrs by MTT assay; type: functional; conditions: PC-3, 44 h
MCF7 [19] = experiment: Cytotoxicity against human MCF7 cells assessed as inhibition of KSP-mediated cell cycle progression after 44 hrs by MTT assay; type: functional; conditions: MCF7, 44 h
SK-OV-3 [20] = experiment: Cytotoxicity against human SKOV3 cells assessed as inhibition of KSP-mediated cell cycle progression after 44 hrs by BrdU incorporation assay; type: functional; conditions: SK-OV-3, 44 h
SK-OV-3 [21] = experiment: Cell cycle arrest in human SKOV3 cells assessed as absence of normal mitotic stages at 100 nM after 24 hrs by confocal microscopic analysis; type: functional, cell-based
SK-OV-3 [22] = experiment: Cell cycle arrest in human SKOV3 cells assessed as monoaster phenotype at 100 nM after 24 hrs by confocal microscopic analysis; type: functional, cell-based
SK-OV-3 [23] = experiment: Nonspecific cytotoxicity against human SKOV3 cells after 44 hrs by BrdU incorporation assay; type: functional; conditions: SK-OV-3, 44 h

Row | SMILES | Activity [9] | Activity (SK-OV-3 [1]) | Activity (PC-3 [2]) | Activity (PC-3 [3]) | Activity (DU-145 [5]) | Activity (MCF7 [6]) | Activity (SK-OV-3 [7]) | Activity (SK-OV-3 [8]) | Activity (DU-145 [10]) | Activity (MCF7 [11]) | Activity (DU-145 [12]) | Activity (MCF7 [13]) | Activity (PC-3 [14]) | GI50 (DU-145 [17]) | GI50 (PC-3 [18]) | GI50 (MCF7 [19]) | other results
1 | Cc1ccc(C(=O)N(CCCN)[C@H](c2nc3cc(Cl)ccc3c(=O)n2Cc2ccccc2)C(C)C)cc1 | 96.8% | 14.5% | 30% | 25% | 24.5% | 17.6% | 16.6% | 49.8% | 53.7% | 21.2% | 10.3% | 49.7% | 34.4% | – | – | – | –
2 | CC(C)[C@H](c1nc2cc(Cl)ccc2c(=O)n1Cc1ccccc1)N(CCCN)C(=O)c1ccc(F)cc1 | 97.1% | 58.5% | 11.1% | 63.6% | – | 12% | 13.8% | 3.5% | – | 53.2% | – | 25.1% | 12% | 0.19 nM | 0.5 nM | 1 nM | Activity (SK-OV-3 [15]): Active; Activity (SK-OV-3 [4]): 58.8%; GI50 (SK-OV-3 [20]): 0.01 nM; Activity (SK-OV-3 [21]): Active; Activity (SK-OV-3 [22]): Active; GI50 (SK-OV-3 [23]): 61000 nM
3 | CC(C)[C@@H](c1nc2cc(Cl)ccc2c(=O)n1Cc1ccccc1)N(CCCN)C(=O)c1ccccc1F | 97.9% | – | – | – | – | – | – | – | – | – | – | – | – | – | – | – | –
4 | CC(C)[C@@H](c1nc2cc(Cl)ccc2c(=O)n1Cc1ccccc1)N(CCCN)C(=O)c1cccc(F)c1 | 98.9% | – | – | – | – | – | – | – | – | – | – | – | – | – | – | – | –
5 | Cc1ccc(C(=O)N(CCCN)[C@@H](c2nc3cc(Cl)ccc3c(=O)n2Cc2ccccc2)C(C)C)cc1 [ISPINESIB] | 102% | 51.3% | 10.1% | 60.9% | 49.8% | 10.6% | 13.6% | 3.8% | 24.8% | 57.2% | 10.8% | 22.1% | 13.8% | – | – | – | –

Further lines, with some results ahead:

Row | Activity [9] | SMILES | Activity (SK-OV-3 [1]) | Activity (PC-3 [2]) | Activity (PC-3 [3]) | Activity (DU-145 [5]) | Activity (MCF7 [6]) | Activity (SK-OV-3 [7]) | Activity (SK-OV-3 [8]) | Activity (DU-145 [10]) | Activity (MCF7 [11]) | Activity (DU-145 [12]) | Activity (MCF7 [13]) | Activity (PC-3 [14]) | GI50 (DU-145 [17]) | GI50 (PC-3 [18]) | GI50 (MCF7 [19]) | other results
6 | 99.2% | CC(C)[C@@H](c1nc2cc(Cl)ccc2c(=O)n1Cc1ccccc1)N(CCCN)C(=O)c1ccc(F)cc1 | 22.5% | 24.2% | 32.9% | 27.7% | 15.2% | 16.2% | 51.9% | 52.9% | 22.8% | 9.5% | 51.3% | 31% | – | – | – | Activity (SK-OV-3 [4]): 2.6%
7 | 97.2% | CC(C)[C@H](c1nc2cc(Cl)ccc2c(=O)n1Cc1ccccc1)N(CCCN)C(=O)c1ccccc1F | – | – | – | – | – | – | – | – | – | – | – | – | 10.7 nM | 7.8 nM | 4.2 nM | Activity (SK-OV-3 [15]): Active; GI50 (SK-OV-3 [16]): 34.8 nM
8 | 99.1% | CC(C)C(c1nc2cc(Cl)ccc2c(=O)n1Cc1ccccc1)N(CCCN)C(=O)c1cccc(F)c1 (racemic) | – | – | – | – | – | – | – | – | – | – | – | – | 4 nM | 17 nM | 5.1 nM | GI50 (SK-OV-3 [16]): 15.6 nM
